Experiments:
[1] = tested on: rabbit hind limb (femoral arterial bed), substance P receptors; experiment: Vascular response in rabbit blood perfused hind limb preparation; format: in vivo; conditions: for ED50: calculated by logistic function, three rabbits; for Effect of antagonist [D-Pro^2,D-Trp^7.9]-substance P on the response: during infusion of antagonist; for Dose at which maximum fall in pressure is achieved / Threshold (minimum) dose required to produce a fall in perfusion pressure / Hind-limb perfusion pressure response: local injection; for Hind-limb perfusion pressure response: no antagonist
Source text: The in vivo receptor pharmacology of the compound produced in Example 3d., above, was studied in a rabbit blood perfused hind limb preparation similar to that described by U. Forstermann et al., J. Pharmacol. Exp. Ther., 234: 1055-61 (1987). Blood from a pentobarbital anesthetized, artificially ventilated rabbit was withdrawn from a cannulated carotid artery, passed within medical grade silastic tubing through a constant speed roller pump, and directed to a cannulated femoral artery. Distal perfusion pressure in the femoral arterial bed was measured (in mm Hg) by means of a micropressure transducer (Millar) passed down the perfusion tubing so as to lie just beyond the tip of the femoral catheter. Initially, pump speed was adjusted so that distal perfusion pressure approximated systemic mean arterial blood pressure after which blood flow was kept constant for the remainder of each experiment. Changes in resistance then varied directly as distal perfusion pressure in a manner similar to that described by Ohm's law, such that:
Vascular Resistance=Perfusion Pressure Blood Flow
Thus, by maintaining blood flow constant for the duration of each experiment, changes in distal perfusion pressure directly reflected vascular resistance such that a decrease in pressure signifies vasodilation and an increase in pressure signifies vasoconstriction. Direct injection into the perfusion circuit could thus be used to assess the vascular biology and pharmacology of substances believed to exert actions on in vivo vascular smooth muscle tone.

rabbit red blood cells [2] = experiment: Binding of conjugate to washed rabbit red blood cells, flow cytometry; format: cell-based; conditions: ex vivo, 100 uM
Experimental: The conjugate of Example 3d. […] The fluorescent moiety of the conjugate allows its ready detection on RBCs by flow cytometry. When conjugate labeled rabbit RBCs are injected in the rabbit hind-limb, a reduction in perfusion pressure occurs, the magnitude of which is related to the number of injected cells.

human RBCs = experiment: Flow cytometry of conjugate-labeled human RBCs with anti-substance P antibody; format: cell-based
Experimental: Specifically, untreated RBCs and conjugate-labeled RBCs were analyzed to determine if:
1. The conjugate was incorporated on the surface of cells (FIG. 3A comparison).
2. Fluorescein isothiocyanate (FITC) conjugated goat anti-rabbit antibodies nonspecifically bound to the conjugate-labeled or non-labeled cells (FIG. 3B comparison), or
3. rabbit anti-substance P antibodies+FITC anti-rabbit antibodies specifically bound to the conjugate-labeled RBCs (FIG. 3C comparison).

rabbit red blood cells [3] = experiment: In vivo stability of conjugate on red blood cells
Experimental: To study the in vivo characteristics of red blood cells labeled with the conjugate of Example 3d., above, 0.5 ml of fresh anticoagulated blood from each of 2 rabbits was labeled with the conjugate (final concentration, 10 μM) and injected back in the same rabbit from which the blood was taken. After the conjugate labeling but prior to injection, an aliquot of labeled cells was examined by flow cytometry to insure adequate labeling. Following in vivo administration of the labeled cells, blood samples were removed at 30 minutes, and then 1, 2, 3, 4, and 7 days and examined by flow cytometry for fluorescent cells.

rabbit red blood cells [4] = conditions: native Substance P; cited from earlier work
membrane ghosts = experiment: Membrane binding stability (MBS) assay in membrane ghosts with 5% albumin; conditions: 24 hours, Table III
Source text: Determination of Membrane Binding Stability
For example, very stable binding to membranes might be required for applications such as delivery of therapeutic radionuclides to tumor sites, as loss of compound could lead to the radionuclide producing its toxic effect at non-tumor sites. On the other hand, more rapid loss of compound from biomembranes may be desirable for application involving controlled delivery rates of therapeutic agents. Accordingly, there is described hereinbelow an assay for determining MBS under conditions approximating those found in vivo.
In carrying out this assay, approximately physiological concentrations of serum albumin (5%) are used. […] To better approximate the effects of large fluid volumes to which labelled cells are exposed in vivo, the assay for MBS is carried out by suspending a decreasing number of labeled membrane ghosts in a fixed volume of albumin-containing saline. At 24 hours, the total amount of label present is determined by sampling the well mixed suspension; subsequently, the membrane ghosts are pelleted by centrifugation and the amount of label released into the supernatant is determined and expressed as a percent of total label. Percent retention is plotted against number of ghosts per ml. of suspension, and MBS is determined as the area under the curve between 5×10^7 ghosts/ml. and 4×10^8 ghosts/ml.

[5] = tested on: cells (red cell membranes); experiment: Number of molecules of compound incorporated per cell; format: cell-based; conditions: 10 μM compounds
Experimental: Number of molecules of compound incorporated per cell was determined for cells labeled with 10 μM compounds. An aliquot of 10^6 cells (10 ul) was withdrawn from the washed cells after final resuspension and counting, compounds were extracted from the cell membrane by admixture with 250 μl of 100% ethanol, and the fluorescence intensity of 200 μl of the extract was measured using a Fluoroskan II fluorescence microplate reader and filter combination. Concentration of compound in each extract was determined from a calibration curve of known compound concentrations made up in 100% ethanol and measured on the Fluoroskan II. Number of molecules of compound per cell was then calculated from the known extract concentration, total volume of extract, and known number of cells extracted. Calculated values were (4.0±0.4)×10^6 for compound T (1.3±0.2)×10^6 for compound AA and (2.5±0.7)×10^6 for compound AB.

[6] = tested on: erythrocyte membrane ghosts; experiment: Relative membrane retention in erythrocyte membrane ghosts (iodination study); format: binding; conditions: 24 hours, 37° C., PBS+EDTA+5% BSA
Experimental: Relative membrane retention was determined using erythrocyte membrane ghosts prepared by NH4 Cl lysis (Slezak and Horan, Blood, supra). Ghosts were labeled at 4×10^8 /ml with 10 μM compounds for 5 minutes at room temperature, using previously described procedures. However, post-labeling washes were carried out using PBS containing 1 mM EDTA and 5% BSA. After the final wash, ghosts were resuspended at 4×10^8 /ml in PBS+EDTA+5% BSA and incubated for 24 hours at 37° C. At 24 hours, duplicate 50 μl aliquots were withdrawn from a) the well mixed suspension of ghosts (for determination of total compound present), and b) the supernatant remaining after ghosts were pelleted for 15 minutes at 12,500×g (for determination of unbound compound present). Aliquots were extracted by admixture with 200 μl of 100% ethanol and fluorescence intensity of each extract measured using the Fluoroskan II fluorescence microplate reader. Percent compound retained was calculated as
total compound--unbound compound×100/total compound

cells (red cells) = conditions: 20 uM

Row | SMILES | Perfusion pressure response to conjugate labeled RBCs ([1]; 10^6 -10^9 labeled RBCs injected) | ED50 [1] | Effect of antagonist [D-Pro^2,D-Trp^7.9]-substance P on the response [1] | Dose at which maximum fall in pressure is achieved [1] | Threshold (minimum) dose required to produce a fall in perfusion pressure [1] | Hind-limb perfusion pressure response [1] | Hind-limb perfusion pressure response ([1]; listed as Substance P-lipophilic cyanine conjugate of Example 3.d.) | Vasodilator activity of supernatant fraction of labeled RBCs ([1]; supernatant fractions of labeled RBCs) | Binding to red blood cells (rabbit red blood cells [2]) | Red fluorescent signal of labeled cells (human RBCs; 10 μM, FIG. 3A) | Recognition of cell-bound Substance P by anti-substance P antibody (human RBCs; FIG. 3C) | In vivo dissociation from labeled cells (rabbit red blood cells [3]; up to 7 days) | Binding to red cells and effect in circulation (rabbit red blood cells [3]; vs free peptide) | Relative potency of substance P vs conjugate ([1]; ratio of ED50) | Lifetime in circulation (rabbit red blood cells [4]) | MBS (membrane ghosts) | Number of molecules of compound incorporated per cell [5] | Percent compound retained [6] | Viability and recovery (cells (red cells))
1 | CCCCCCCCCCCCCCCCCCCCCC[N+]1=C(C=CC=C2N(CCCCCCCCCCCCCC)c3ccc(CNC(=O)c4ccc(C(=O)NCCCC[C@H](NC(=O)[C@@H]5CCCN5C(=O)[C@@H](N)CCCNC(=N)N)C(=O)N5CCC[C@H]5C(=O)N[C@@H](CCC(N)=O)C(=O)N[C@@H](CCC(N)=O)C(=O)N[C@@H](Cc5ccccc5)C(=O)N[C@@H](Cc5ccccc5)C(=O)NCC(=O)N[C@@H](CC(C)C)C(=O)N[C@@H](CCSC)C(N)=O)cc4)cc3C2(C)C)C(C)(C)c2ccccc21 [conjugate of Example 3d] | graded decreases in perfusion pressure in the rabbit hind limb preparation | 34 pmol | inhibited by [D-Pro^2,D-Trp^7.9 ]-substance P | 1000 pmol | 1 to 10 pmol | brief, dose-related decreases in hind-limb perfusion pressure | capable of vasodilative activity which is qualitatively similar to that of native Substance P | contained a significant portion of the biological activity of the original cell suspension | readily binds to washed rabbit red blood cells | increased red fluorescent signal when compared with the unlabeled cells | significant amount of both green and red fluorescence detectable on the cells | relatively slowly | bind stably to red cells and to provide a protracted therapeutic effect in circulation |  |  |  |  |  | 
2 | CSCC[C@H](NC(=O)[C@H](CC(C)C)NC(=O)CNC(=O)[C@H](Cc1ccccc1)NC(=O)[C@H](Cc1ccccc1)NC(=O)[C@H](CCC(N)=O)NC(=O)[C@H](CCC(N)=O)NC(=O)[C@@H]1CCCN1C(=O)[C@H](CCCCN)NC(=O)[C@@H]1CCCN1C(=O)[C@@H](N)CCCNC(=N)N)C(N)=O [Substance P, reference compound] |  | 0.13 pmol | inhibited by [D-Pro^2,D-Trp^7.9 ]-substance P | 3 to 10 pmol | approximately 0.003 pmoles | brief, dose-related decreases in hind-limb perfusion pressure |  |  |  |  |  |  |  | 250 fold | minutes |  |  |  | 
3 | CCCCCCCCCCCCCCCCCCCCCC[N+]1=C(C=CC=C2N(CCCCCCCCCCCCCC)c3ccc(CNC=O)cc3C2(C)C)C(C)(C)c2ccccc21 [AB] |  |  |  |  |  |  |  |  |  |  |  |  |  |  |  | 91 ± 0.5% | (2.5±0.7)×10^6 molecules of compound per cell | 96.8±1.3% | 70-80%

— patent publication US5667764A, “Compounds, compositions and methods for binding bio-affecting substances to surface membranes of bio-particles” (Zynaxis, Inc., priority 1992, dated 1997)
